In brackets after ≈: the same amount, converted by molar mass. Read-outs that look alike come from different tables or passages of the source.
Key:
Format in all cases: cell-based
[1] = system: M. xenopi (ATCC 19250); test: MIC against M. xenopi in CAMHB + ADC; conditions: Mycobacterium xenopi
[2] = system: M. kansasii (ATCC 12478); test: MIC against M. kansasii in CAMHB + ADC; conditions: Mycobacterium kansasii
[3] = system: A. baumannii (HUMC1 strain); test: MIC by broth microdilution against A. baumannii in RPMI + 10% FCS; conditions: Acinetobacter baumannii, read-out: MIC A. baumannii
[4] = system: M. avium (ATCC 25291); test: MIC against M. avium in CAMHB + ADC; conditions: Mycobacterium avium
[5] = system: S. aureus (UAMS-1625 strain); test: MIC by broth microdilution against S. aureus; conditions: Staphylococcus aureus, read-out: MIC S. aureus
[6] = system: M. abscessus subsp. abscessus ATCC 19977; test: MIC against M. abscessus in Middlebrook 7H9 + ADC; conditions: Mycobacteroides abscessus
[7] = ATCC19250, ATCC 19250, CAMHB + ADC (5%), read-out: MIC M. xenopi
[8] = ATCC12478, ATCC 12478, CAMHB + ADC (5%), read-out: MIC M. kansasii
[9] = ATCC25291, ATCC 25291, CAMHB + ADC (5%), read-out: MIC M. avium
[10] = ATCC19977, ATCC 19977, 7H9 + ADC, read-out: MIC M. abscessus
[11] = ATCC19250, read-out: MIC M. xenopi
[12] = ATCC12478, read-out: MIC M. kansasii
[13] = ATCC25291, read-out: MIC M. avium
[14] = ATCC19977, read-out: MIC M. abscessus

Row | Compound | MIC [1, 7] | MIC [2, 8] | MIC ([3]; HUMC1 strain, RPMI + 10% FCS) | MIC [4, 9] | MIC [5] | MIC [6, 10] | MIC [1, 11] | MIC [2, 12] | MIC [3] | MIC [4, 13] | MIC [6, 14]
1 | CO[C@H]1/C=C/O[C@@]2(C)Oc3c(C)c(O)c4c(c3C2=O)C2=NC3(CCN(CC(C)C)CC3)NC2=C(NC(=O)/C(C)=C\C=C\[C@H](C)[C@H](O)[C@@H](C)[C@@H](O)[C@@H](C)[C@H](OC(=O)CC(=O)N2CCC(N(C)c3ccccc3)CC2)[C@@H]1C)C4=O [Compound 14] | 0.03 µg/mL | 0.002 µg/mL | 0.06 µg/mL | 0.06 µg/mL | 0.5 µg/mL (≈ 0.47 µM) | 0.125 µg/mL | – | – | – | – | –
2 | CO[C@H]1/C=C/O[C@@]2(C)Oc3c(C)c(O)c4c(c3C2=O)C2=NC3(CCN(CC(C)C)CC3)NC2=C(NC(=O)/C(C)=C\C=C\[C@H](C)[C@H](O)[C@@H](C)[C@@H](O)[C@@H](C)[C@H](OC(=O)C(C)C(=O)N2CCC(N(C)c3ccccc3)CC2)[C@@H]1C)C4=O (stereo partly drawn) [Compound 40] | 0.03 µg/mL | 0.001 µg/mL | 0.03 µg/mL | 0.06 µg/mL | 0.5 µg/mL (≈ 0.464 µM) | 0.125 µg/mL | – | – | – | – | –
3 | CO[C@H]1/C=C/O[C@@]2(C)Oc3c(C)c(O)c4c(c3C2=O)C2=NC3(CCN(CC(C)C)CC3)NC2=C(NC(=O)/C(C)=C\C=C\[C@H](C)[C@H](O)[C@@H](C)[C@@H](O)[C@@H](C)[C@H](OC(=O)CC(=O)N2CCC(Nc3ccccc3)CC2)[C@@H]1C)C4=O [Compound 44] | – | – | – | – | 0.25 µg/mL (≈ 0.238 µM) | – | 0.03 µg/mL | 0.004 µg/mL | 0.008 µg/mL | 0.06 µg/mL | 0.25 µg/mL
4 | CO[C@H]1/C=C/O[C@@]2(C)Oc3c(C)c(O)c4c(c3C2=O)C2=NC3(CCN(CC(C)C)CC3)NC2=C(NC(=O)/C(C)=C\C=C\[C@H](C)[C@H](O)[C@@H](C)[C@@H](O)[C@@H](C)[C@H](OC(=O)CC(=O)N2CCC(n3nnc5cc(C(F)(F)F)ccc53)CC2)[C@@H]1C)C4=O [Compound 49] | 0.03 µg/mL | 0.008 µg/mL | 0.25 µg/mL | 0.06 µg/mL | 1 µg/mL (≈ 0.875 µM) | 0.25 µg/mL | – | – | – | – | –
5 | CO[C@H]1/C=C/O[C@@]2(C)Oc3c(C)c(O)c4c(c3C2=O)C2=NC3(CCN(CC(C)C)CC3)NC2=C(NC(=O)/C(C)=C\C=C\[C@H](C)[C@H](O)[C@@H](C)[C@@H](O)[C@@H](C)[C@H](OC(=O)CC(=O)N2CCC(Cc3ccccc3)CC2)[C@@H]1C)C4=O [Compound 50] | – | – | – | – | 2 µg/mL (≈ 1.91 µM) | – | 0.03 µg/mL | 0.004 µg/mL | 0.06 µg/mL | 0.06 µg/mL | 0.125 µg/mL
6 | CO[C@H]1/C=C/O[C@@]2(C)Oc3c(C)c(O)c4c(c3C2=O)C2=NC3(CCN(CC(C)C)CC3)NC2=C(NC(=O)/C(C)=C\C=C\[C@H](C)[C@H](O)[C@@H](C)[C@@H](O)[C@@H](C)[C@H](OC(=O)CC(=O)N2CCC3(CC2)Cc2ccccc2C3)[C@@H]1C)C4=O [Compound 52] | 0.03 µg/mL | 0.002 µg/mL | 0.016 µg/mL | 0.03 µg/mL | 0.5 µg/mL (≈ 0.472 µM) | 0.125 µg/mL | – | – | – | – | –
7 | CO[C@H]1/C=C/O[C@@]2(C)Oc3c(C)c(O)c4c(c3C2=O)C2=NC3(CCN(CC(C)C)CC3)NC2=C(NC(=O)/C(C)=C\C=C\[C@H](C)[C@H](O)[C@@H](C)[C@@H](O)[C@@H](C)[C@H](OC(=O)CC(=O)N2CCC(O)(Cc3ccccc3)CC2)[C@@H]1C)C4=O [Compound 54] | – | 0.008 µg/mL | 0.008 µg/mL | 0.06 µg/mL | 0.125 µg/mL (≈ 0.117 µM) | 0.25 µg/mL | 0.125 µg/mL | – | – | – | –
8 | CO[C@H]1/C=C/O[C@@]2(C)Oc3c(C)c(O)c4c(c3C2=O)C2=NC3(CCN(CC(C)C)CC3)NC2=C(NC(=O)/C(C)=C\C=C\[C@H](C)[C@H](O)[C@@H](C)[C@@H](O)[C@@H](C)[C@H](OC(=O)CC(=O)N2CCC(C(=O)c3ccccc3)CC2)[C@@H]1C)C4=O [Compound 55] | 0.06 µg/mL | 0.016 µg/mL | 0.016 µg/mL | 1 µg/mL | 0.5 µg/mL (≈ 0.471 µM) | 0.25 µg/mL | – | – | – | – | –
9 | CO[C@H]1/C=C/O[C@@]2(C)Oc3c(C)c(O)c4c(c3C2=O)C2=NC3(CCN(CC(C)C)CC3)NC2=C(NC(=O)/C(C)=C\C=C\[C@H](C)[C@H](O)[C@@H](C)[C@@H](O)[C@@H](C)[C@H](OC(=O)CC(=O)N2CCC(CCc3ccccc3)CC2)[C@@H]1C)C4=O [Compound 56] | 0.06 µg/mL | 0.03 µg/mL | 0.03 µg/mL | 0.5 µg/mL | 2 µg/mL (≈ 1.88 µM) | 0.25 µg/mL | – | – | – | – | –
10 | CO[C@H]1/C=C/O[C@@]2(C)Oc3c(C)c(O)c4c(c3C2=O)C2=NC3(CCN(CC(C)C)CC3)NC2=C(NC(=O)/C(C)=C\C=C\[C@H](C)[C@H](O)[C@@H](C)[C@@H](O)[C@@H](C)[C@H](OC(=O)CC(=O)N2CCC(Oc3ccccc3)CC2)[C@@H]1C)C4=O [Compound 57] | – | – | – | – | 0.5 µg/mL (≈ 0.476 µM) | – | 0.03 µg/mL | 0.008 µg/mL | 0.03 µg/mL | 0.125 µg/mL | 0.125 µg/mL
11 | CO[C@H]1/C=C/O[C@@]2(C)Oc3c(C)c(O)c4c(c3C2=O)C2=NC3(CCN(CC(C)C)CC3)NC2=C(NC(=O)/C(C)=C\C=C\[C@H](C)[C@H](O)[C@@H](C)[C@@H](O)[C@@H](C)[C@H](OC(=O)CC(=O)N2CCCN(c3ccc(F)cc3)CC2)[C@@H]1C)C4=O [Compound 66] | 0.06 µg/mL | 0.016 µg/mL | 0.016 µg/mL | 0.125 µg/mL | 0.125 µg/mL (≈ 0.117 µM) | – | – | – | – | – | 0.125 µg/mL
12 | CO[C@H]1/C=C/O[C@@]2(C)Oc3c(C)c(O)c4c(c3C2=O)C2=NC3(CCN(CC(C)C)CC3)NC2=C(NC(=O)/C(C)=C\C=C\[C@H](C)[C@H](O)[C@@H](C)[C@@H](O)[C@@H](C)[C@H](OC(=O)CC(=O)N2CCC(OC3CCC(C)CC3)CC2)[C@@H]1C)C4=O (stereo partly drawn) [Compound 67] | 0.125 µg/mL | 0.008 µg/mL | 0.008 µg/mL | 0.25 µg/mL | 0.25 µg/mL (≈ 0.234 µM) | 0.125 µg/mL | – | – | – | – | –
13 | CO[C@H]1/C=C/O[C@@]2(C)Oc3c(C)c(O)c4c(c3C2=O)C2=NC3(CCN(CC(C)C)CC3)NC2=C(NC(=O)/C(C)=C\C=C\[C@H](C)[C@H](O)[C@@H](C)[C@@H](O)[C@@H](C)[C@H](OC(=O)CC(=O)N2CCC3C(CCCN3Cc3ccccc3)C2)[C@@H]1C)C4=O (stereo partly drawn) [Compound 68] | 0.125 µg/mL | 0.001 µg/mL | 0.03 µg/mL | 0.03 µg/mL | 0.5 µg/mL (≈ 0.453 µM) | 0.25 µg/mL | – | – | – | – | –
14 | CCC(C(=O)O[C@H]1[C@H](C)[C@H](O)[C@H](C)[C@@H](O)[C@@H](C)/C=C/C=C(/C)C(=O)NC2=C3NC4(CCN(CC(C)C)CC4)N=C3c3c(c(O)c(C)c4c3C(=O)[C@@](C)(O/C=C/[C@H](OC)[C@H]1C)O4)C2=O)C(=O)N1CCCN(c2ccc(F)cc2)CC1 (stereo partly drawn) [Compound 79] | 0.03 µg/mL | 0.004 µg/mL | 0.03 µg/mL | 0.125 µg/mL | 0.5 µg/mL (≈ 0.456 µM) | 0.125 µg/mL | – | – | – | – | –
15 | CO[C@H]1/C=C/OC2(C)Oc3c(C)c(O)c4c(c3C2=O)C2=NC3(CCN(CC(C)C)CC3)NC2=C(NC(=O)/C(C)=C\C=C\[C@H](C)[C@H](O)[C@@H](C)[C@@H](O)[C@@H](C)[C@H](OC(=O)CCC(=O)N2CCC(N(C)c3ccccc3)CC2)[C@@H]1C)C4=O (stereo partly drawn) [Compound 82] | 0.03 µg/mL | 0.016 µg/mL | 0.016 µg/mL | 0.25 µg/mL | 0.5 µg/mL (≈ 0.464 µM) | 0.25 µg/mL | – | – | – | – | –
16 | CO[C@H]1/C=C/OC2(C)Oc3c(C)c(O)c4c(c3C2=O)C2=NC3(CCN(CC(C)C)CC3)NC2=C(NC(=O)/C(C)=C\C=C\[C@H](C)[C@H](O)[C@@H](C)[C@@H](O)[C@@H](C)[C@H](OC(=O)CCC(=O)N2CCCN(c3ccc(F)cc3)CC2)[C@@H]1C)C4=O (stereo partly drawn) [Compound 83] | 0.03 µg/mL | 0.008 µg/mL | 0.016 µg/mL | 0.25 µg/mL | 0.5 µg/mL (≈ 0.462 µM) | 0.25 µg/mL | – | – | – | – | –
17 | CO[C@H]1/C=C/OC2(C)Oc3c(C)c(O)c4c(c3C2=O)C2=NC3(CCN(CC(C)C)CC3)NC2=C(NC(=O)/C(C)=C\C=C\[C@H](C)[C@H](O)[C@@H](C)[C@@H](O)[C@@H](C)[C@H](OC(=O)CCCC(=O)N2CCCN(c3ccc(F)cc3)CC2)[C@@H]1C)C4=O (stereo partly drawn) [Compound 86] | 0.03 µg/mL | 0.008 µg/mL | 0.008 µg/mL | 0.125 µg/mL | 0.5 µg/mL (≈ 0.456 µM) | 0.125 µg/mL | – | – | – | – | –
18 | CO[C@H]1/C=C/O[C@@]2(C)Oc3c(C)c(O)c4c(c3C2=O)C2=NC3(CCN(CC(C)C)CC3)NC2=C(NC(=O)/C(C)=C\C=C\[C@H](C)[C@H](O)[C@@H](C)[C@@H](O)[C@@H](C)[C@H](OC(=O)CC(=O)N2CCN(Cc3ccccc3)CC2)[C@@H]1C)C4=O [Compound 91] | 0.03 µg/mL | 0.001 µg/mL | 0.016 µg/mL | 0.125 µg/mL | 0.25 µg/mL (≈ 0.238 µM) | 0.125 µg/mL | – | – | – | – | –
19 | CO[C@H]1/C=C/OC2(C)Oc3c(C)c(O)c4c(c3C2=O)C2=NC3(CCN(CC(C)C)CC3)NC2=C(NC(=O)/C(C)=C\C=C\[C@H](C)[C@H](O)[C@@H](C)[C@@H](O)[C@@H](C)[C@H](OC(=O)CC(=O)NC2CCN(Cc3ccccc3)C2)[C@@H]1C)C4=O (stereo partly drawn) [Compound 93] | 0.25 µg/mL | 0.008 µg/mL | 0.008 µg/mL | 0.5 µg/mL | 0.125 µg/mL (≈ 0.119 µM) | 0.25 µg/mL | – | – | – | – | –
20 | CO[C@H]1/C=C/O[C@@]2(C)Oc3c(C)c(O)c4c(c3C2=O)C2=NC3(CCN(CC(C)C)CC3)NC2=C(NC(=O)/C(C)=C\C=C\[C@H](C)[C@H](O)[C@@H](C)[C@@H](O)[C@@H](C)[C@H](OC(=O)CC(=O)N2CCN(C3Cc5ccccc5C3)CC2)[C@@H]1C)C4=O [Compound 95] | 0.03 µg/mL | 0.002 µg/mL | 0.03 µg/mL | 0.125 µg/mL | 0.5 µg/mL (≈ 0.465 µM) | 0.125 µg/mL | – | – | – | – | –

Source: patent US20250051356A1, “RIFABUTIN ANALOGS FOR THE TREATMENT OF DISEASE” (priority 2021, published 2025)
